What was measured:
Rattus norvegicus = organism: Rattus norvegicus; experiment: Enzyme kinetics constant (Km value) was determined in rat brain homogenate […]; assay type: functional
Homo sapiens [1] = organism: Homo sapiens; experiment: Enzyme kinetics constant (Km value) was determined in human erythrocyte membrane […]; assay type: functional
[2] = Compound was evaluated for its ability to mobilize calcium from [Ca(2+)]-preloaded SH-SY5Y cells permeabilised using saponin; assay type: functional, cell-based; conditions: Homo sapiens
[3] = biological target: Inositol 1,4,5-trisphosphate-gated calcium channel ITPR3 (Bos taurus, UniProt Q8WN95); experiment: Compound was evaluated for its ability to displace [3H]Ins(1,4,5)P3 from membranes prepared from bovine adrenal corticles
Chain of Inositol 1,4,5-trisphosphate-gated calcium channel ITPR3 (Q8WN95 whole entry): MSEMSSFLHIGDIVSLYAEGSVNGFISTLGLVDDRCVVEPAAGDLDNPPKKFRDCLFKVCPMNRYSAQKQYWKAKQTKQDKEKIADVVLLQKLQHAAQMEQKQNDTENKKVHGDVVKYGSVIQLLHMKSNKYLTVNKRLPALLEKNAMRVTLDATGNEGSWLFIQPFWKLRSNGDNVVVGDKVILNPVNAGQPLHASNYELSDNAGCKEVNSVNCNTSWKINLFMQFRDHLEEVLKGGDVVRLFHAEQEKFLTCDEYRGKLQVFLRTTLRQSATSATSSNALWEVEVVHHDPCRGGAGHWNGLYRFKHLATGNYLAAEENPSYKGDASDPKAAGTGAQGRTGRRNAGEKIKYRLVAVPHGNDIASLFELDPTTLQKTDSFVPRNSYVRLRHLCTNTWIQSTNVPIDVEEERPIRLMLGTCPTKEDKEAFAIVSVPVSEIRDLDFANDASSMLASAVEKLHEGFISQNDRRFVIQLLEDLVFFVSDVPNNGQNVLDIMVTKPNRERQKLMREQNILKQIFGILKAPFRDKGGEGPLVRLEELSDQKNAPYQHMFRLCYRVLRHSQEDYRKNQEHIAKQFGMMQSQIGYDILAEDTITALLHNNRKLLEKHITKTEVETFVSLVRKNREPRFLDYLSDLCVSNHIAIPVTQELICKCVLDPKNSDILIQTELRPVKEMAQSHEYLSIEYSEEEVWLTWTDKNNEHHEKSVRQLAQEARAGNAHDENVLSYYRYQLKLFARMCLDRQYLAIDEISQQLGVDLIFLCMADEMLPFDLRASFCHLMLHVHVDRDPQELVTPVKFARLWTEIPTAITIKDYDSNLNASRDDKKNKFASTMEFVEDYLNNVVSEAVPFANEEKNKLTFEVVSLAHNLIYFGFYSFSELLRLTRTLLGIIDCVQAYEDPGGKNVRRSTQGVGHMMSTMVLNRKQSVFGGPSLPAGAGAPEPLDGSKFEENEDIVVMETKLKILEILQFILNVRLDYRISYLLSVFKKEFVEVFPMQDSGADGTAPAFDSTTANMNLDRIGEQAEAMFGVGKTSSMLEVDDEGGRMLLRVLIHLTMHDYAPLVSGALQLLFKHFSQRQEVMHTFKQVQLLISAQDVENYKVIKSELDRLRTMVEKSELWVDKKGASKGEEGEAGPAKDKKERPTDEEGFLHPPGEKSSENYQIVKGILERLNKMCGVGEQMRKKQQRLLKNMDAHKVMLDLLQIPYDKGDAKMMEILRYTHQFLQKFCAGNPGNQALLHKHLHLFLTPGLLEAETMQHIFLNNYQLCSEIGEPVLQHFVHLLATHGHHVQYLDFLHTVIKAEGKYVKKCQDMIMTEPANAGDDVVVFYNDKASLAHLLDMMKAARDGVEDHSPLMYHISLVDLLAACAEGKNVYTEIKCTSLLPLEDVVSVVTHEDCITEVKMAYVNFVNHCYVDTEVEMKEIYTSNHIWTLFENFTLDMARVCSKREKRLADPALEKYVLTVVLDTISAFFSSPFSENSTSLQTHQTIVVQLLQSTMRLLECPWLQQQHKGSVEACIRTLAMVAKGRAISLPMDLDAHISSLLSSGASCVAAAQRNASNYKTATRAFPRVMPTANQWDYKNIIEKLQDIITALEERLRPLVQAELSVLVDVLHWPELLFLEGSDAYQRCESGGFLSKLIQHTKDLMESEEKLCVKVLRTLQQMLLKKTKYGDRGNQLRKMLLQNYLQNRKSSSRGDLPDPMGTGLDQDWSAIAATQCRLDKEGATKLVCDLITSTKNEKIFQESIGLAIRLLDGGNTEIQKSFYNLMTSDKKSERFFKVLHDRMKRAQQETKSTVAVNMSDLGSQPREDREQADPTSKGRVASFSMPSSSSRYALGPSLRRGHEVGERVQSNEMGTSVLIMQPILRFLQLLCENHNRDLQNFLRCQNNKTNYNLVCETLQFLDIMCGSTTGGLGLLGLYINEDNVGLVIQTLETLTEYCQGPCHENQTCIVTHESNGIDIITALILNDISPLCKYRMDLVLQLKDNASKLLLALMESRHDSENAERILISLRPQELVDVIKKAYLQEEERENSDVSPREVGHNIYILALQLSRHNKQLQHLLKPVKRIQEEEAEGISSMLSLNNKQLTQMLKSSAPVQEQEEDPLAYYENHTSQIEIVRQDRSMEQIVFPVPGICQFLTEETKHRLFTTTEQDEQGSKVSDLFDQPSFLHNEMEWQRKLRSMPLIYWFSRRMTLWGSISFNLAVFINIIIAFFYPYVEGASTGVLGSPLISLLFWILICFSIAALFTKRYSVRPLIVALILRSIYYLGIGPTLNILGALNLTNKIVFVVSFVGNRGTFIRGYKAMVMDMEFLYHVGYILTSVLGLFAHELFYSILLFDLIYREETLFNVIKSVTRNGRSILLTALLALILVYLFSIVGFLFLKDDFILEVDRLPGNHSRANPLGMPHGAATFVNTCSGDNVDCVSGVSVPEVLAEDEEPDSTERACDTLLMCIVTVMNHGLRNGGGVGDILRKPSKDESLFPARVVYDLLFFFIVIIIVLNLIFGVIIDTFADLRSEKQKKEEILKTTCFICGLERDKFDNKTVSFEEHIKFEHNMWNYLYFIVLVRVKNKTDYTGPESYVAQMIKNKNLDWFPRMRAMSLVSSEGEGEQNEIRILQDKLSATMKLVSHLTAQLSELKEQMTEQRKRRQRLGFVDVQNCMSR

[4] = Inhibition of Ins(1,4,5)P3 phosphorylation by rat brain homogenate; assay type: functional
Homo sapiens [5] = organism: Homo sapiens; experiment: Compound was evaluated for the inhibition of [3H]- Ins(1,4,5)P3 dephosphorylation by human erythrocyte membrane Ins(1,4,5)P3 5-phosphatase; assay type: functional
[6] = Compound was evaluated for its ability to mobilize calcium in 1321NI cells; assay type: functional, cell-based
[7] = Compound was evaluated for its ability to mobilize calcium from [Ca(2+)]-preloaded SH-SY5Y cells permeabilised using saponin; devoid of [Ca2+] mobilising activity; assay type: functional, cell-based, Homo sapiens

Km (Rattus norvegicus)	Km (Homo sapiens [1])	EC50 [2]	Ki [3]	Ki [4]	Ki (Homo sapiens [5])	EC50 [6]	EC50 [7]	SMILES
1.5 µM	31.8 µM	0.052 µM						O=P(O)(O)O[C@@H]1[C@H](O)[C@H](O)[C@@H](OP(=O)(O)O)[C@H](OP(=O)(O)O)[C@H]1O [INS(1,4,5)P3]
		2.1 µM						O=P(O)(O)O[C@H]1[C@H](O)[C@@H](OP(=O)(O)O)[C@H](OP(=O)(O)O)[C@@H](OP(=O)(O)O)[C@H]1O
			< 3 µM	100 µM	15.9 µM	< 100 µM	Not Active	O=C(OC1C(OP(=O)(O)O)C(OP(=O)(O)O)C(OC(=O)c2ccccc2)C(OP(=O)(O)O)C1OP(=O)(O)O)c1ccccc1 (centres undefined)
